Where two headings read alike, the source gives them in different places.
Test system: 280 human cancer cell lines
Assay: OncoPanel cell proliferation assay (10-day)
Assay type: cell-based
Details: Homo sapiens; for EC50: read-out: Cell Count EC50; for GI50: read-out: Cell Count GI50; for IC50: read-out: Cell Count IC50
[1] = Caov-3, CaOV3, Female GU - Ovary
[2] = ChaGo-K-1, ChaGoK1, Lung - NSCLC
[3] = D341 Med, CNS - Medulloblastoma
[4] = Detroit 562, Detroit 562, Head and Neck
[5] = DoTc2-4510, DoTc2 4510, Lymphoma
[6] = G292, G-292, clone A141B1, Soft Tissue - Osteosarcoma
[7] = HEL 92.1.7, HEL-92-1-7, Leukemia
[8] = HOS, Soft Tissue - Osteosarcoma
[9] = HT-1080, HT-1080, Soft Tissue - Sarcoma
[10] = HUH-6-clone5, HUH-6 Clone 5, Liver
[11] = Hs 821.T, Soft Tissue - Sarcoma
[12] = Hs 888.Sk, Soft Tissue - Osteosarcoma

Compound: CC(C)=CCC[C@@H]1C(O)Oc2c(C)cc(O)c3c2[C@H]1CC[C@H]3C (stereo partly shown) [Compound 2, 5,18-epoxyserrulat-14-en-8,18-diol]
- EC50 [1]: 10.2 µM
- GI50 [1]: 9.61 µM
- IC50 [1]: 10.2 µM
- EC50 (Capan-2, Capan-2, Pancreas): 8.64 µM
- GI50 (Capan-2, Capan-2, Pancreas): 8.48 µM
- IC50 (Capan-2, Capan-2, Pancreas): 8.64 µM
- EC50 [2]: 8.32 µM
- GI50 [2]: 8.26 µM
- IC50 [2]: 8.32 µM
- EC50 [3]: 19.2 µM
- GI50 [3]: 18.7 µM
- IC50 [3]: 19.2 µM
- EC50 (DB, Lymphoma): 3.23 µM
- GI50 (DB, Lymphoma): 3.24 µM
- IC50 (DB, Lymphoma): 3.25 µM
- EC50 (DBTRG-05MG, CNS - Glioma): 12.2 µM
- GI50 (DBTRG-05MG, CNS - Glioma): 12.8 µM
- IC50 (DBTRG-05MG, CNS - Glioma): 13 µM
- EC50 (DK-MG, CNS - Glioma): 1.64 µM
- GI50 (DK-MG, CNS - Glioma): > 30 µM
- IC50 (DK-MG, CNS - Glioma): > 30 µM
- EC50 (DLD-1, DLD-1, Colon): 10.7 µM
- GI50 (DLD-1, DLD-1, Colon): 11.2 µM
- IC50 (DLD-1, DLD-1, Colon): 11.2 µM
- EC50 (DMS-53, DMS53, Lung - SCLC): 5.91 µM
- GI50 (DMS-53, DMS53, Lung - SCLC): 5.75 µM
- IC50 (DMS-53, DMS53, Lung - SCLC): 5.95 µM
- EC50 (DMS-114, DMS114, Lung - SCLC): 11.5 µM
- GI50 (DMS-114, DMS114, Lung - SCLC): 13.1 µM
- IC50 (DMS-114, DMS114, Lung - SCLC): 13.8 µM
- EC50 (DOHH-2, DOHH-2, Lymphoma): 3.24 µM
- GI50 (DOHH-2, DOHH-2, Lymphoma): 3.24 µM
- IC50 (DOHH-2, DOHH-2, Lymphoma): 3.24 µM
- EC50 (DU-145, DU145, Prostate): 21 µM
- GI50 (DU-145, DU145, Prostate): 20.7 µM
- IC50 (DU-145, DU145, Prostate): 21 µM
- EC50 (Daoy, CNS - Medulloblastoma): 8.64 µM
- GI50 (Daoy, CNS - Medulloblastoma): 8.64 µM
- IC50 (Daoy, CNS - Medulloblastoma): 8.65 µM
- EC50 (Daudi, Lymphoma): 3.93 µM
- GI50 (Daudi, Lymphoma): 3.92 µM
- IC50 (Daudi, Lymphoma): 3.93 µM
- EC50 [4]: 14.5 µM
- GI50 [4]: 14.4 µM
- IC50 [4]: 14.5 µM
- EC50 [5]: 6.07 µM
- GI50 [5]: 5.84 µM
- IC50 [5]: 6.07 µM
- EC50 (EB2, Lymphoma): 23.3 µM
- GI50 (EB2, Lymphoma): 23 µM
- IC50 (EB2, Lymphoma): 23.3 µM
- EC50 (EB-3, Lymphoma): 9.72 µM
- GI50 (EB-3, Lymphoma): 9.71 µM
- IC50 (EB-3, Lymphoma): 9.72 µM
- EC50 (EFM-19, EFM-19, Breast): 11.2 µM
- GI50 (EFM-19, EFM-19, Breast): 10.6 µM
- IC50 (EFM-19, EFM-19, Breast): 11.2 µM
- EC50 (EM-2, Leukemia): 10.8 µM
- GI50 (EM-2, Leukemia): 10.8 µM
- IC50 (EM-2, Leukemia): 10.8 µM
- EC50 (FaDu, Head and Neck): 8.66 µM
- GI50 (FaDu, Head and Neck): 8.66 µM
- IC50 (FaDu, Head and Neck): 8.66 µM
- EC50 [6]: 8.8 µM
- GI50 [6]: 8.57 µM
- IC50 [6]: 8.8 µM
- EC50 (G-361, G-361, Skin (Melanoma)): 11.7 µM
- GI50 (G-361, G-361, Skin (Melanoma)): 11.8 µM
- IC50 (G-361, G-361, Skin (Melanoma)): 11.8 µM
- EC50 (G-401, G-401, Kidney): 26 µM
- GI50 (G-401, G-401, Kidney): 26.2 µM
- IC50 (G-401, G-401, Kidney): 26.2 µM
- EC50 (GA-10, GA-10, Lymphoma): 3.72 µM
- GI50 (GA-10, GA-10, Lymphoma): 3.73 µM
- IC50 (GA-10, GA-10, Lymphoma): 3.73 µM
- EC50 (H4, CNS - Glioma): 3.06 µM
- GI50 (H4, CNS - Glioma): > 30 µM
- IC50 (H4, CNS - Glioma): > 30 µM
- EC50 (HCT-15, HCT-15, Colon): 8.64 µM
- GI50 (HCT-15, HCT-15, Colon): 9.48 µM
- IC50 (HCT-15, HCT-15, Colon): 9.49 µM
- EC50 (HCT-116, HCT-116, Colon): 6.68 µM
- GI50 (HCT-116, HCT-116, Colon): 6.67 µM
- IC50 (HCT-116, HCT-116, Colon): 6.68 µM
- EC50 (HEC-1-A, Female GU - Uterus): 12.1 µM
- GI50 (HEC-1-A, Female GU - Uterus): 12 µM
- IC50 (HEC-1-A, Female GU - Uterus): 12.1 µM
- EC50 [7]: 13.4 µM
- GI50 [7]: 13.4 µM
- IC50 [7]: 13.4 µM
- EC50 (HLE, Liver): 10 µM
- GI50 (HLE, Liver): 16 µM
- IC50 (HLE, Liver): 16.4 µM
- EC50 (HLF, Liver): 13.7 µM
- GI50 (HLF, Liver): 15.6 µM
- IC50 (HLF, Liver): 15.7 µM
- EC50 (HMCB, Skin (Melanoma)): 6.68 µM
- GI50 (HMCB, Skin (Melanoma)): 6.57 µM
- IC50 (HMCB, Skin (Melanoma)): 6.68 µM
- EC50 [8]: 4.82 µM
- GI50 [8]: 4.81 µM
- IC50 [8]: 4.82 µM
- EC50 (HPAF-II, Pancreas): 9.46 µM
- GI50 (HPAF-II, Pancreas): 9.6 µM
- IC50 (HPAF-II, Pancreas): 9.62 µM
- EC50 (HT1197, HT-1197, Bladder): 10.7 µM
- GI50 (HT1197, HT-1197, Bladder): 10.3 µM
- IC50 (HT1197, HT-1197, Bladder): 10.7 µM
- EC50 (HT, Lymphoma): 6.51 µM
- GI50 (HT, Lymphoma): 6.43 µM
- IC50 (HT, Lymphoma): 6.51 µM
- EC50 (HT-3, Female GU - Cervix): 17.6 µM
- GI50 (HT-3, Female GU - Cervix): 18.6 µM
- IC50 (HT-3, Female GU - Cervix): 19.3 µM
- EC50 (HT-29, HT-29, Colon): 19.5 µM
- GI50 (HT-29, HT-29, Colon): 19.4 µM
- IC50 (HT-29, HT-29, Colon): 19.5 µM
- EC50 [9]: 3.31 µM
- GI50 [9]: 3.3 µM
- IC50 [9]: 3.31 µM
- EC50 (HT-1376, HT1376, Bladder): 4.71 µM
- GI50 (HT-1376, HT1376, Bladder): 4.47 µM
- IC50 (HT-1376, HT1376, Bladder): 4.71 µM
- EC50 [10]: 15.5 µM
- GI50 [10]: 15.3 µM
- IC50 [10]: 15.5 µM
- EC50 (HeLa, Female GU - Cervix): 16.6 µM
- GI50 (HeLa, Female GU - Cervix): 16.5 µM
- IC50 (HeLa, Female GU - Cervix): 16.6 µM
- EC50 (HepG2, HepG2, Liver): 6.74 µM
- GI50 (HepG2, HepG2, Liver): 6.86 µM
- IC50 (HepG2, HepG2, Liver): 6.95 µM
- EC50 (Hs 229.T, Lung - NSCLC): 29.3 µM
- GI50 (Hs 229.T, Lung - NSCLC): 28.6 µM
- IC50 (Hs 229.T, Lung - NSCLC): 29.8 µM
- EC50 (Hs 294T, Skin (Melanoma)): 7.01 µM
- GI50 (Hs 294T, Skin (Melanoma)): 6.72 µM
- IC50 (Hs 294T, Skin (Melanoma)): 7.01 µM
- EC50 (Hs 445, Hs 445, Lymphoma): 4.34 µM
- GI50 (Hs 445, Hs 445, Lymphoma): 4.23 µM
- IC50 (Hs 445, Hs 445, Lymphoma): 4.34 µM
- EC50 (Hs 611.T, Lymphoma): 10.7 µM
- GI50 (Hs 611.T, Lymphoma): 10.6 µM
- IC50 (Hs 611.T, Lymphoma): 10.7 µM
- EC50 (Hs 683, Hs 683, CNS - Glioma): 29.8 µM
- GI50 (Hs 683, Hs 683, CNS - Glioma): 28.3 µM
- IC50 (Hs 683, Hs 683, CNS - Glioma): 29.8 µM
- EC50 (Hs 688(A).T, Skin (Melanoma)): 11.6 µM
- GI50 (Hs 688(A).T, Skin (Melanoma)): 12.2 µM
- IC50 (Hs 688(A).T, Skin (Melanoma)): 13.2 µM
- EC50 (Hs746T, HS 746T, Stomach): > 30 µM
- GI50 (Hs746T, HS 746T, Stomach): > 30 µM
- IC50 (Hs746T, HS 746T, Stomach): > 30 µM
- EC50 (Hs766T, Hs 766T, Pancreas): 28.4 µM
- GI50 (Hs766T, Hs 766T, Pancreas): 26.2 µM
- IC50 (Hs766T, Hs 766T, Pancreas): 28.4 µM
- EC50 [11]: > 30 µM
- GI50 [11]: 13.9 µM
- IC50 [11]: > 30 µM
- EC50 [12]: 28.3 µM
- GI50 [12]: 27.9 µM
- IC50 [12]: 28.5 µM
- EC50 (Hs 934.T, Skin (Melanoma)): > 30 µM
- GI50 (Hs 934.T, Skin (Melanoma)): 24.1 µM
- IC50 (Hs 934.T, Skin (Melanoma)): > 30 µM
- EC50 (Hs 936.T(C1), Skin (Melanoma)): 3.62 µM
- GI50 (Hs 936.T(C1), Skin (Melanoma)): 3.74 µM
- IC50 (Hs 936.T(C1), Skin (Melanoma)): 3.76 µM
- EC50 (Hs-578T, Hs 578T, Breast): 28.7 µM
- GI50 (Hs-578T, Hs 578T, Breast): 28.2 µM
- IC50 (Hs-578T, Hs 578T, Breast): 28.7 µM
- EC50 (HuCCT-1, HuCCT1, Liver): 22.6 µM
- GI50 (HuCCT-1, HuCCT1, Liver): 22.6 µM
- IC50 (HuCCT-1, HuCCT1, Liver): 22.6 µM
- EC50 (HuP-T4, HuP-T4, Pancreas): > 30 µM
- GI50 (HuP-T4, HuP-T4, Pancreas): > 30 µM
- IC50 (HuP-T4, HuP-T4, Pancreas): > 30 µM
- EC50 (J82, Bladder): 12.9 µM
- GI50 (J82, Bladder): 12.7 µM
- IC50 (J82, Bladder): 12.9 µM
- EC50 (JAR, Placenta): > 30 µM
- GI50 (JAR, Placenta): > 30 µM
- IC50 (JAR, Placenta): > 30 µM
- EC50 (JEG-3, JEG-3, Placenta): > 30 µM
- GI50 (JEG-3, JEG-3, Placenta): > 30 µM
- IC50 (JEG-3, JEG-3, Placenta): > 30 µM
- EC50 (JIYOYE, Lymphoma): 17.8 µM
- GI50 (JIYOYE, Lymphoma): 17.7 µM
- IC50 (JIYOYE, Lymphoma): 17.8 µM
- EC50 (JeKo-1, JeKo-1, Lymphoma): 4.48 µM
- GI50 (JeKo-1, JeKo-1, Lymphoma): 4.47 µM
- IC50 (JeKo-1, JeKo-1, Lymphoma): 4.48 µM
- EC50 (Jurkat, Leukemia): 2.66 µM
- GI50 (Jurkat, Leukemia): 2.65 µM
- IC50 (Jurkat, Leukemia): 2.66 µM
- EC50 (K562, K562, Leukemia): 10.2 µM
- GI50 (K562, K562, Leukemia): 10.1 µM
- IC50 (K562, K562, Leukemia): 10.2 µM
- EC50 (KATO III, Stomach): 8.98 µM
- GI50 (KATO III, Stomach): 16.6 µM
- IC50 (KATO III, Stomach): 16.8 µM
- EC50 (KHOS-240S, Soft Tissue - Osteosarcoma): 4.59 µM
